This is an account of results in patent US7311892B2, “Multidrug multiligand conjugates for targeted drug delivery” (priority 2001, dated 2007).

The test system of experiment [1] is NCI-H1299 non-small cell lung cancer cells. Description: Cell proliferation assay. The format is cell-based. Particulars: Homo sapiens, 50 nM, 3 hours exposure, then drug-free medium, cells counted after 96 hours, normalized to untreated cells, quadruplicate, read-out: growth inhibition. The protocol: Cells were grown as described in Example 2 and exposed to various treatments. The cells were left untreated or treated with 50 nM of the PTX-BBN[7-13]-BTN-SaV conjugate, unconjugated paclitaxel (PTX), the biotin/streptavidin complex (BTN/SaV) or a mixture of BTN/SaV and PTX. After 3 hours, the media containing these additives was removed and replaced with fresh media. After 96 hours, the cells were removed from the 24 well plates by treatment with trypsin/EDTA and counted with a Coulter particle counter. All treatments were done in quadruplicate and the cell counts were normalized to the untreated cells.
To evaluate the growth inhibitory effects of the PTX-BBN[7-13]-BTN/SaV conjugate, experiments were designed to compare the effect of the conjugate with the unconjugated paclitaxel, the BTN/SaV complex and a mixture of free PTX and the BTN/SaV complex (FIG. 5).
The HI299 cells were plated in 24 well plates at a density of 10,000 cells/well and allowed to adhere for 24 hours. The cells were treated with 50 nM of the following: 1) no treatment (Untreated); 2) unconjugated paclitaxel(PTX); 3) biotin/streptavidin complex (BTN/SaV); 4) a mixture of BTN/SaV and PTX; and 5) the PTX-BBN[7-13]-BTN/SaV conjugate (Conjugate) described in FIG. 1A. […] After 96 hours, the cells were removed from the 24 well plates by treatment with trypsin/EDTA and counted with a Coulter particle counter. […]

The test system is the same in experiment [2]. Description: Apoptosis induction assay (Annexin V-FITC, flow cytometry). It is filed as cell-based. Particulars: 50 nM, 3 hours exposure, then drug-free medium; analysed after 96 hours; triplicate. The protocol:
Apoptosis was measured by an Annexin V-FITC kit. […] 2.3%, 2.5% and 2.4% induction for untreated cells, free PTX, the BTN/SaV complex and the BTN/SaV+PTX controls, respectively.
FIG. 6 illustrates the results of an apoptosis induction assay, illustrating NCI-HI299 cells are induced to undergo apoptosis specifically in response to the PTX-BBN[7-13]-BTN-SaV conjugate. Cells were grown as described above and in Example 3 and left untreated or treated with 50 nM of the PTX-BBN[7-13]-BTN-SaV conjugate, unconjugated paclitaxel (PTX), the biotin/streptavidin complex (BTN/SaV) or a mixture of BTN/SaV and PTX. After 3 hours, the media containing these additives was removed and replaced with fresh media. After 96 hours, the cells were removed from the 24 well plates by treatment with trypsin/EDTA and analyzed for Annexin V by flow cytometry using an Annexin V-FITC kit (Biovision, Palo Alto, Calif.). All treatments were done in triplicate and presented as the percentage of cells staining with Annexin V-FITC. […]
The HI299 cells were plated in 24 well plates at a density of 10,000 cells/well and allowed to adhere for 24 hours. […] After 96 hours, the cells were removed from the 24 well plates by treatment with trypsin/EDTA and analyzed for Annexin V by flow cytometry using an Annexin V-FITC kit (Biovision, Palo Alto, Calif.). […]
(In flow cytometry, cells or beads pass a laser one at a time.)

Molecules are shown by their SMILES.

For `CC(=O)O[C@H]1C(=O)[C@@]2(C)[C@H]([C@H](OC(=O)c3ccccc3)[C@]3(O)C[C@H](OC(=O)[C@H](O)[C@@H](NC(=O)c4ccccc4)c4ccccc4)C(C)=C1C3(C)C)[C@]1(OC(C)=O)CO[C@@H]1C[C@@H]2O` [free PTX, paclitaxel], the inhibition (usually how much of the control response was suppressed) at 0.05 µM in experiment [1] stood at 0%. Moreover, the “induction of apoptosis (percentage of cells staining with Annexin V-FITC)” value in experiment [2] is given as roughly 2.3%.
